Active and inactive are the calls of the source.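 How the source made its calls: active means maximal inhibition of the USP30 enzyme reaching 30% or more across the dose series; inactive means the rest.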
What follows are compounds tested against Ubiquitin carboxyl-terminal hydrolase 30 (Homo sapiens) (UniProt Q70CQ3) (assay: inhibitors of ubiquitin-specific protease 30 deubiquitylating enzyme, concentration dependence, in vitro biochemical, validation of primary hits (AID 1645865)). Settings: purified USP30, Ub-rhodamine cleavage, fluorescence, 2 h.
Sequence of Ubiquitin carboxyl-terminal hydrolase 30 (Homo sapiens) (Q70CQ3 whole entry, looked up): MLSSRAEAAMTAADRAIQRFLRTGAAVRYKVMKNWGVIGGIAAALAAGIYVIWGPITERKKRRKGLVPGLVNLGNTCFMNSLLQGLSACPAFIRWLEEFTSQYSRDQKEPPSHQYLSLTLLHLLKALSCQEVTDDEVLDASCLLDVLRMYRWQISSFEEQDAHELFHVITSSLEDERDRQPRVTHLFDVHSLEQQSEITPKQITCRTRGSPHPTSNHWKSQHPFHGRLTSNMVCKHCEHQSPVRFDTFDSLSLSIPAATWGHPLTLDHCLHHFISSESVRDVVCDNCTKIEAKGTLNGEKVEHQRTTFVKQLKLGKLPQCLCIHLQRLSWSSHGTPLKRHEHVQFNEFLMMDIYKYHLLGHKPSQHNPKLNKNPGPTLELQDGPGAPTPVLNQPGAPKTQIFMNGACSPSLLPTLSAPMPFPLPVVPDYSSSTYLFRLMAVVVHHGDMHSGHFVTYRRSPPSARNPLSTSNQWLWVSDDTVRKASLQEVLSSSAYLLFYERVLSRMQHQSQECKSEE
Compound `O=C(COC(=O)c1ccc(Cl)cc1)Nc1ccc2[nH]c(=O)[nH]c2c1` has an IC50 of 3.98 µM. For `COc1ccc(NC(=O)c2nnn(-c3ccccc3)c2C)cc1OC`, the IC50 was > 50 µM (inactive). With `CC1CCN(c2cc(-n3cnc(C(=O)N4CCCC(C)C4)c3)ncn2)CC1` (configuration not stated) the IC50 was > 50 µM (inactive). Work on `CSc1ccccc1C(=O)Nc1nc(-c2ccncc2)cs1` yielded an IC50 of 23.3 µM. In the case of `O=C(Nc1cccn(Cc2c(Cl)cccc2Cl)c1=O)c1ccccc1[N+](=O)[O-]`, the IC50 is reported as > 50 µM (inactive). With `Cn1c2ccccc2c2ncn(Cc3ccc(F)cc3)c(=O)c21` the IC50 was 27.3 µM. `COc1cccc(S(=O)(=O)N2CCn3nc(C(C)(C)C)cc3C2)c1` showed an IC50 of 24.6 µM. With `CNC(=O)CC1NC(=O)c2csc(n2)-c2ccc(-c3nc(C4=NC(C(=O)N5CCCC5C(N)=O)CO4)cs3)nc2-c2csc(n2)-c2csc(n2)C(C(O)c2ccccc2)NC(=O)CNC(=O)c2nc(sc2COC)C(C(C)C)NC(=O)c2nc1sc2C` (configuration not stated) the IC50 was > 50 µM (inactive). `CNc1nc2c(c(=O)n1Cc1ccccc1)CN(C(=O)c1ccc(CN)cc1)CC2` showed an IC50 of 42.8 µM. `COc1ccccc1OCC(=O)Nc1ccc2c(c1)CCC(=O)N2Cc1ccccc1` was tested, and the IC50 was > 50 µM (inactive). With `O=C(Cn1c(=O)n(CC(=O)NC2CCCC2)c(=O)c2ccccc21)Nc1cc(Cl)ccc1Cl` the IC50 was 2.42 µM. `CCN1C(=O)c2cccnc2Sc2cc(NC(=O)c3ccc(Cl)s3)ccc21` was tested, and the IC50 was > 50 µM (inactive). For `COc1ccc(NC(=O)CSc2oc(-c3ccc(C)cc3)nc2S(=O)(=O)c2ccc(Br)cc2)c(OC)c1`, the IC50 was > 50 µM (inactive). `O=C1NC(=O)/C(=C/c2ccc(OC(=O)c3ccc(Cl)cc3Cl)cc2)N1` showed an IC50 of 2.41 µM. For `CCOC(=O)c1sc2nc(CC(=O)OC)nc(NCc3ccco3)c2c1C`, the IC50 was > 50 µM (inactive). `COc1ccc(-c2nc(Cn3nnc(C(=O)Nc4ccc(C)c(C)c4)c3N)c(C)o2)cc1` showed an IC50 of 2.53 µM. For `COc1cccc(-c2cc(C(=O)N3CCN(c4ccc(N5CCOCC5)nn4)CC3)[nH]n2)c1`, the IC50 was 38.5 µM. `CCOC(=O)c1ccc(NC(=O)Cn2c(=O)n(CC(=O)NCc3ccco3)c(=O)c3ccccc32)cc1` was tested, and the IC50 was 1.01 µM. In the case of `Cc1cccc(C(=O)OCC(=O)Nc2ccc3[nH]c(=O)[nH]c3c2)c1C`, the IC50 is reported as 2.85 µM. `COc1ccc2cc1Oc1cc(ccc1OC)C(O)C13SSC4(C(=O)N1C)C(O)C1=COC=CC(OC2=O)C1N4C3=O` (configuration not stated) showed an IC50 of 0.674 µM. `CN1c2ccccc2CN(CC(N)=O)CC1Cc1ccccc1` (configuration not stated) was tested, and the IC50 was > 50 µM (inactive). With `COc1cc([C@@H]2c3cc4c(cc3C[C@@H]3COC(=O)[C@H]32)OCO4)cc(OC)c1OC` the IC50 was 18.7 µM. For `CC(=O)c1sc(NC(=O)/C=C/c2ccccc2)nc1-c1ccccc1`, the IC50 was 18 µM. With `COc1ccc(CC(=O)NCc2ccc3[nH]c(C)cc3c2)cc1` the IC50 was > 50 µM (inactive). With `CN1CCN(c2ncnc3c2oc2ccc(Cl)cc23)CC1` the IC50 was > 50 µM (inactive). With `CN(C(=O)c1ccncc1)[C@H]1CC[C@@]2(C)C[C@H](c3ccccc3)C[C@](C)(O2)[C@@H]1O` the IC50 was > 50 µM (inactive). In the case of `Cc1[nH]nc(NC(=O)C2COc3ccccc3O2)c1-c1ccccc1` (configuration not stated), the IC50 is reported as 40.7 µM. For `CC1Oc2cc3c(-c4c(O)cc(O)c5c(O)c6c(cc45)OC(C)C(C)C6=O)c(O)cc(O)c3c(O)c2C(=O)C1C` (configuration not stated), the IC50 was 4.98 µM. `CC(C)(C)n1ncc2c(=O)n(Cc3cccc([N+](=O)[O-])c3)cnc21` was tested, and the IC50 was > 50 µM (inactive). For `COc1cccc(CC(=O)Nc2cc(F)c3nc(N4CCOCC4)ccc3c2)c1`, the IC50 was > 50 µM (inactive). `N#Cc1c(-c2cccs2)cc(-c2cccs2)[nH]c1=O` was tested, and the IC50 was > 50 µM (inactive). For `COc1ccc(C)cc1NC(=O)Cc1csc(NC(=O)c2ccc(=O)[nH]c2)n1`, the IC50 was > 50 µM (inactive). `c1ccc(-n2nnc(-c3noc(-c4ccccn4)n3)c2-c2ccncc2)cc1` gave an IC50 of 25.4 µM. In the case of `Cc1nn(Cc2ccccc2)c(Cl)c1C(=O)NC1CCCc2ccccc21` (configuration not stated), the IC50 is reported as > 50 µM (inactive). In the case of `COc1cccc(Cn2nc3n(CC(C)C)c(=O)c4ccc(C(=O)NCC(C)C)cc4n3c2=O)c1`, the IC50 is reported as 2.37 µM. `Cc1cc(-c2nnc(SCC(=O)Nc3ccc(Br)c(C)c3)n2N)n[nH]1` was tested, and the IC50 was 16.1 µM. In the case of `Cc1cccc(C(=O)N2CCN3Cc4ccccc4N(C)CC3C2)c1` (configuration not stated), the IC50 is reported as > 50 µM (inactive).
